The target of the assay is T1, human ROCKα/ROCKII mix (Homo sapiens, UniProt O75116).
T1 construct: purchased Upstate Biotechnology 14-451
Nature of the assay: ROCK inhibition, fluorescence polarization (FP) assay with ROCK IMAP Kit. It is filed as biochemical. For orientation: Polarisation of emitted light reports the rotation of a fluorescent probe.

The mark [1] stands for this setting: Table 3, compounds of Formula III20.
The mark [2] stands for this setting: Table 2, compounds of Formula V20.
Where [3] appears, read: Table 1, compounds of Formula IV20.

Where a name gives a salt, the structure may show the parent alone.

T1 sequence (O75116 whole entry): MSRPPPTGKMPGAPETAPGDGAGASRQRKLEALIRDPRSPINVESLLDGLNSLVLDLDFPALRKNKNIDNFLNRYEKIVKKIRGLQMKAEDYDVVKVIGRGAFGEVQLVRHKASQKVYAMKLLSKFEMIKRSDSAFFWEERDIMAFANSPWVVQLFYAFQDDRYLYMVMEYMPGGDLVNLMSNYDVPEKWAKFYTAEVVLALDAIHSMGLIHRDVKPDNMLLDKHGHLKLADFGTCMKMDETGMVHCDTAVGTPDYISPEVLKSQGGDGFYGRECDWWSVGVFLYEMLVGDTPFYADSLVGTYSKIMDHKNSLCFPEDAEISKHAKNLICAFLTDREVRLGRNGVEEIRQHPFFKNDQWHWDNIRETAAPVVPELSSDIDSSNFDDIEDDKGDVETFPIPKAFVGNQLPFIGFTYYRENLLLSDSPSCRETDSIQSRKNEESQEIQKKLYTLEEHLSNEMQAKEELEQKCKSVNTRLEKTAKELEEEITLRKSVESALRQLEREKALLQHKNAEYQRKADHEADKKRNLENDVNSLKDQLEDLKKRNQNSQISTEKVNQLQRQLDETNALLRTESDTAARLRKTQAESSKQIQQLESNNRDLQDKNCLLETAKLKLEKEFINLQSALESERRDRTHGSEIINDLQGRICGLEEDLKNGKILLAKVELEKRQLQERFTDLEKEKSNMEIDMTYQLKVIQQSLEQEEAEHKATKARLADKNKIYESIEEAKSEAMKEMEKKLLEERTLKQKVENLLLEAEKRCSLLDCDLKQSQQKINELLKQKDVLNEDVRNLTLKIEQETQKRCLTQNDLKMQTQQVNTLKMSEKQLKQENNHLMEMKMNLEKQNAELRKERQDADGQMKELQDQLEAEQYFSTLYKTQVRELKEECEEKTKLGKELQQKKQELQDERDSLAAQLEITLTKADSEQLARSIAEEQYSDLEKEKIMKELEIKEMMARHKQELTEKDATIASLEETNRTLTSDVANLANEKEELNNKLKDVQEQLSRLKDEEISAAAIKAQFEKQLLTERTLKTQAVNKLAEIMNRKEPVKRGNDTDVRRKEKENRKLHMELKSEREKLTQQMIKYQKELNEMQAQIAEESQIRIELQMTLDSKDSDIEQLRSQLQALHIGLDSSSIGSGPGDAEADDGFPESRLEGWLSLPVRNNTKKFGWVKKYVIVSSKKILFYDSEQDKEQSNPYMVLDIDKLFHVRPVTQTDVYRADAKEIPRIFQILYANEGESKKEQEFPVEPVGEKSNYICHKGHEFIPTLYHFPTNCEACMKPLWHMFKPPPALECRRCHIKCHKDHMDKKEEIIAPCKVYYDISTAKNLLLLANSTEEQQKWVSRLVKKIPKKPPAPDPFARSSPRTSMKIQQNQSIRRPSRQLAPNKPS

In the case of `COc1ccc(S(=O)(=O)N2CCCC2C(N)c2ccc(C(=O)Nc3ccncc3)cc2)cc1` (centres unmarked) [Compound 132, 4-{Amino-[1-(4-methoxy-benzenesulfonyl)-pyrrolidin-2-yl]-methyl}-N-pyridin-4-yl-benzamide dihydrochloric acid salt], the IC50 (usually the point on the concentration scale where inhibition reaches its midpoint) (Table 4, compounds 132 to 156) was 0.5 to 5 µM.

The compound `NC(CC(=O)N1CCCC(CO)C1)c1ccc(C(=O)Nc2ccncc2)cc1` (centres unmarked) [Compound 109, 4-[1-amino-3-(3-hydroxymethyl-piperidin-1-yl)-3-oxo-propyl]-N-pyridin-4-yl-benzamide] registered an IC50 under setting [1] below 0.5 µM. The same measure, in the same setting: with `COc1ccc(Cl)cc1C1CCCCN1C(=O)CC(N)c1ccc(C(=O)Nc2ccncc2)cc1` (centres unmarked) [Compound 96, 4-{1-amino-3-[2-(5-chloro-2-methoxy-phenyl)-piperidin-1-yl]-3-oxo-propyl}-N-pyridin-4-yl-benzamide] the figure was below 0.5 µM. `NC(CNS(=O)(=O)c1ccc(-c2ccccc2)cc1)c1ccc(C(=O)Nc2ccncc2)cc1` (centres unmarked) [Compound 76]: the IC50 under setting [2] lay in the range of 0.5 to 5 µM. Take `NC(CC(=O)N1CCCCC1c1ccc(Cl)cc1)c1ccc(C(=O)Nc2ccncc2)cc1` (centres unmarked) [Compound 94, 4-{1-amino-3-[2-(4-chloro-phenyl)-piperidin-1-yl]-3-oxo-propyl}-N-pyridin-4-yl-benzamide]: under setting [1], the IC50 was below 0.5 µM. Consider `NC(CC(=O)N1CCCCC1c1ccccc1)c1ccc(C(=O)Nc2ccncc2)cc1` (centres unmarked) [Compound 92, 4-[1-amino-3-oxo-3-(2-phenyl-piperidin-1-yl)-propyl]-N-pyridin-4-yl-benzamide], for which the IC50 under setting [1] is below 0.5 µM. Under setting [3], `NC(C(=O)NC1CCN(Cc2ccccc2)CC1)c1ccc(C(=O)Nc2ccncc2)cc1` (centres unmarked) [Compound 51, 4-{amino-[1-benzyl-piperidin-4-ylcarbamoyl]-methyl}-N-pyridin-4-yl-benzamide] displayed an IC50 of 0.5 to 5 µM. With `NC(C(=O)NCC1CC1)c1ccc(C(=O)Nc2ccncc2)cc1` (centres unmarked) [Compound 25, 4-[amino-(cyclopropylmethyl-carbamoyl)-methyl]-N-pyridin-4-yl-benzamide], the half-inhibitory concentration (IC50) under setting [3] is 0.5 to 5 µM. For `NC(CNS(=O)(=O)Cc1ccccc1)c1ccc(C(=O)Nc2ccncc2)cc1` (centres unmarked) [Compound 60, 4-(1-amino-2-phenylmethanesulfonylamino-ethyl)-N-pyridin-4-yl-benzamide], the IC50 under setting [2] is below 0.5 µM.

For the setting “Table 4, compounds 132 to 156”, `N[C@H](CC(=O)N1CCC[C@@H]1c1cccc(F)c1)c1ccc(C(=O)Nc2ccncc2)cc1` [Compound 149, 4-{(R)-1-Amino-3-[(R)-2-(3-fluoro-phenyl)-pyrrolidin-1-yl]-3-oxo-propyl}-N-pyridin-4-yl-benzamide dihydrochloric acid salt] registered an IC50 below 0.5 µM. On to `NC(CC(=O)N1CCC(O)(c2ccccc2)CC1)c1ccc(C(=O)Nc2ccncc2)cc1` (centres unmarked) [Compound 111, 4-[1-amino-3-(4-hydroxy-4-phenyl-piperidin-1-yl)-3-oxo-propyl]-N-pyridin-4-yl-benzamide], for which the IC50 under setting [1] is below 0.5 µM.

Under setting [1], `NC(CC(=O)N1CCCC1c1ccc(F)cc1)c1ccc(C(=O)Nc2ccncc2)cc1` (centres unmarked) [Compound 86, 4-{1-amino-3-[2-(4-fluoro-phenyl)-pyrrolidin-1-yl]-3-oxo-propyl}-N-pyridin-4-yl-benzamide] registered an IC50 below 0.5 µM. Under setting [3], `CCNC(=O)C(N)c1ccc(C(=O)Nc2ccncc2)cc1` (centres unmarked) [Compound 22, 4-(amino-ethylcarbamoyl-methyl)-N-pyridin-4-yl-benzamide] registered an IC50 of 0.5 to 5 µM. With `NC(C(=O)NCCc1ccc(F)cc1)c1ccc(C(=O)Nc2ccncc2)cc1` (centres unmarked) [Compound 16, 4-{amino-[2-(4-fluoro-phenyl)ethylcarbamoyl]-methyl}-N-pyridin-4-yl-benzamide], the half-maximal inhibitory concentration (IC50) under setting [3] was below 0.5 µM.

The values are drawn from patent US20100190788A1, “Amide derivatives as kinase inhitors” (priority 2005, published 2010).
